The text below walks through data of PMC10325911 (2023).

SMILES strings stand for the structures.

For assay [1], the system named is C-rich HIF-1α (DNA, single strand) CGCGCTCCCGCCCCCTCTCCCCTCCCCGCGC
The experiment in a line: fluorescence polarization titration. The following applies: K+ 100 mM; Tris 50 mM pH 7.2, DBI 1 μM, DMSO 1%, DNA up to 10 μM.

The test system of assay [2] is sc ds-DNA (DNA, duplex) CAATCGGATCGAATTCGATCCGATTG
The experiment in a line: fluorescence polarization titration. The following applies: K+ 100 mM; Tris 50 mM pH 7.2, DBI 1 μM, DMSO 1%, DNA up to 10 μM.

In assay [3] the test system is c-MYC Pu22 (DNA, G4) TGAGGGTGGGTAGGGTGGGTAA
Kind of assay: CD melting. The following applies: K+ 5 mM; Tris 10 mM pH 7.2, DBI 10 μM, oligonucleotide 2 μM, DMSO 2%.

Assay [4] concerns 4G3U3 (RNA, G4) GGGUUUGGGUUUGGGUUUGGG
Kind of assay: CD melting. The settings on record: K+ 5 mM; Tris 10 mM pH 7.2, DBI 10 μM, oligonucleotide 2 μM, DMSO 2%.

Assay [5] concerns Bom17 (DNA, G4) GGTTAGGTTAGGTTAGG
Kind of assay: CD melting. The settings on record: K+ 5 mM; Tris 10 mM pH 7.2, DBI 10 μM, oligonucleotide 2 μM, DMSO 2%.

Assay [6] concerns HIF-1α (DNA, G4) GCGCGGGGAGGGGAGAGGGGGCGGGAGCGCG
The experiment in a line: fluorescence polarization titration. The settings on record: K+ 100 mM; Tris 50 mM pH 7.2, DBI 1 μM, DMSO 1%, DNA 0-10 μM.

Assay [7] relates to FMR1 (RNA, G4) GGAGGGGGAGGAAGAGGACAAGGAGGAAGAGG
Kind of assay: fluorescence polarization titration. The settings on record: no or very weak binding response, group statement for all four RNAs.

In assay [8] the test system is sc ds-DNA (DNA, duplex) CAATCGGATCGAATTCGATCCGATTG
The experiment in a line: CD melting. The settings on record: K+ 5 mM; Tris 10 mM pH 7.2, DBI 10 μM, oligonucleotide 2 μM, DMSO 2%.

Assay [9] relates to sc ds-RNA (RNA, duplex) CAAUCGGAUCGAAUUCGAUCCGAUUG
Kind of assay: fluorescence polarization titration. The following applies: no or very weak binding response, group statement for all four RNAs.

The test system of assay [10] is c-MYC Pu24T (DNA, G4) TGAGGGTGGTGAGGGTGGGGAAGG
Kind of assay: CD melting. The settings on record: K+ 5 mM; Tris 10 mM pH 7.2, DBI 10 μM, oligonucleotide 2 μM, DMSO 2%.

The test system of assay [11] is c-MYC Pu22 (DNA, G4) TGAGGGTGGGTAGGGTGGGTAA
The experiment in a line: fluorescence polarization titration. The settings on record: K+ 100 mM; Tris 50 mM pH 7.2, DBI 1 μM, DMSO 1%, DNA 0-10 μM.

For assay [12], the system named is TERRA (RNA, G4) UUAGGGUUAGGGUUAGGGUUAGGG
Kind of assay: fluorescence polarization titration. The following applies: no or very weak binding response, group statement for all four RNAs.

For assay [13], the system named is mut HIF-1α (DNA, single strand) GCGCGGCGAGCGGAGAGGGCGCGCGAGCGCG
The experiment in a line: fluorescence polarization titration. The settings on record: K+ 100 mM; Tris 50 mM pH 7.2, DBI 1 μM, DMSO 1%, DNA up to 10 μM.

The test system of assay [14] is 4G3U3 (RNA, G4) GGGUUUGGGUUUGGGUUUGGG
The experiment in a line: fluorescence polarization titration. The following applies: no or very weak binding response, group statement for all four RNAs.

Assay [15] deals with ds-DNA HIF-1α (DNA, duplex) GCGCGGGGAGGGGAGAGGGGGCGGGAGCGCG/CGCGCTCCCGCCCCCTCTCCCCTCCCCGCGC
The experiment in a line: CD melting. The following applies: K+ 5 mM; Tris 10 mM pH 7.2, DBI 10 μM, oligonucleotide 2 μM, DMSO 2%.

The test system of assay [16] is Tel-22 (DNA, G4) AGGGTTAGGGTTAGGGTTAGGG
The experiment in a line: CD melting. The settings on record: K+ 5 mM; Tris 10 mM pH 7.2, DBI 10 μM, oligonucleotide 2 μM, DMSO 2%.

Regarding `CCC(CC)n1c(=O)c2ccc3sc4ccc5ccccc5c4c4ccc(c1=O)c2c34`, the binding entry in assay [1] is listed as “no”; in assay [2], “no”; in [7] it was “weak”; in assay [9], “weak”; in assay [12], “weak”; in [13], “no”. In addition, the binding entry in assay [14] is on record as “weak”. Moreover, the ΔTm in assay [3] was 7.3 °C; in [4], 0.6 °C; in assay [5], -0.1 °C; in [8], -1.5 °C; in assay [10], 3.3 °C; in [15] it was 2 °C. Further, the thermal shift (ΔTm) in assay [16] was -1.3 °C. Also, the Ka is recorded as 4.6 × 10^5 ± 0.5 M^−1 in assay [6] and 4.5 × 10^5 ± 1.1 M^−1 in assay [11].
